# Measurements published in patent US11840686B2, “Modulation of prekallikrein (PKK) expression” (Ionis Pharmaceuticals, Inc., priority 2013, dated 2023).
# Strand notation (5' to 3'): a small letter for the sugar, then the base; units joined by * are phosphorothioate-linked, units joined directly phosphodiester-linked; [ ] holds rarer units or linkages, { } end groups; capitals alone tell only the bases. e = 2'-O-(2-methoxyethyl) (MOE); [5mC] = 5-methylcytosine; d = 2'-deoxy (DNA)
# Legend:
# human PKK mRNA [1] = experiment: Dose-dependent antisense inhibition of human PKK in HepaRG cells, 0.19-5.00 uM (Example 5); type: cell-based; details: HepaRG cells; for percent inhibition of PKK at 0.19 μM / percent inhibition of PKK at 0.56 μM / percent inhibition of PKK at 1.67 μM / percent inhibition of PKK at 5.00 μM / percent inhibition of PKK at 0.19 0μM / percent inhibition of PKK at 0.56 0μM / percent inhibition of PKK at 1.67 1μM: electroporation, approximately 16 hours; for IC50: 4 point dose response
# In short: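 HepaRG cells (20,000/well) were electroporated with antisense oligonucleotide at 0.19, 0.56, 1.67 and 5.00 μM and treated for about 16 hours. PKK mRNA was quantified by qRT-PCR with primer probe set RTS3454, normalised to RIBOGREEN total RNA, and IC50 was derived per oligonucleotide.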
# human PKK mRNA [2] = experiment: Antisense inhibition of human PKK mRNA in HepaRG cells, 5,000 nM (Example 2); type: cell-based
# In short: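 HepaRG cells, 20,000 per well, were electroporated with 5,000 nM MOE gapmer (phosphorothioate, 5-methylcytosine) and incubated about 24 hours. PKK mRNA was quantified by qRT-PCR with primer probe set RTS3454, normalized to RIBOGREEN total RNA, and expressed as percent inhibition versus untreated controls.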
substance,measurement,setting,value
546216 (antisense e[5mC]*eT*eG*eG*eA*dG*dT*dG*dA*dG*dA*dA*d[5mC]*d[5mC]*d[5mC]*eT*eG*eG*e[5mC]*eA) [compound 546216],percent inhibition of PKK at 0.19 μM,human PKK mRNA [1]; Table 35,62%
same,percent inhibition of PKK at 0.56 μM,human PKK mRNA [1]; Table 35,69%
same,percent inhibition of PKK at 1.67 μM,human PKK mRNA [1]; Table 35,88%
same,percent inhibition of PKK at 5.00 μM,human PKK mRNA [1]; Table 35,88%
same,percent inhibition of PKK at 5.00 μM,human PKK mRNA [1]; Table 41,98%
same,percent inhibition of PKK at 0.19 0μM,human PKK mRNA [1]; Table 41,23%
same,percent inhibition of PKK at 0.56 0μM,human PKK mRNA [1]; Table 41,78%
same,percent inhibition of PKK at 1.67 1μM,human PKK mRNA [1]; Table 41,95%
same,IC50,human PKK mRNA [1]; Table 41,< 200 nM
same,% inhibition,"human PKK mRNA [2]; Table 7, HepaRG cells, electroporation with 5,000 nM antisense oligonucleotide, approx. 24 hours, PKK mRNA by RT-PCR (RTS3454), relative to untreated control cells",93%
547637 (eA*eG*eT*eA*eT*d[5mC]*dA*d[5mC]*dT*dG*dT*dA*d[5mC]*dT*dA*eG*eT*eT*eT*eT; antisense) [compound 547637],percent inhibition of PKK at 0.19 μM,human PKK mRNA [1]; Table 37,10%
same,percent inhibition of PKK at 0.56 μM,human PKK mRNA [1]; Table 37,21%
same,percent inhibition of PKK at 1.67 μM,human PKK mRNA [1]; Table 37,36%
same,percent inhibition of PKK at 5.00 μM,human PKK mRNA [1]; Table 37,82%
same,IC50,human PKK mRNA [1]; Table 37,1800 nM
same,% inhibition,"human PKK mRNA [2]; human PKK mRNA, HepaRG cells, 5-10-5 motif oligonucleotides targeting SEQ ID NO: 1 and 10",88%
547340 (antisense e[5mC]*eT*e[5mC]*e[5mC]*eT*d[5mC]*dT*d[5mC]*dA*dT*dA*dT*d[5mC]*dA*dA*e[5mC]*eT*e[5mC]*e[5mC]*eT) [compound 547340],percent inhibition of PKK at 0.19 μM,human PKK mRNA [1]; Table 35,46%
same,percent inhibition of PKK at 0.56 μM,human PKK mRNA [1]; Table 35,79%
same,percent inhibition of PKK at 1.67 μM,human PKK mRNA [1]; Table 35,88%
same,percent inhibition of PKK at 0.19 0μM,human PKK mRNA [1]; Table 41,34%
same,percent inhibition of PKK at 0.56 0μM,human PKK mRNA [1]; Table 41,84%
same,percent inhibition of PKK at 1.67 1μM,human PKK mRNA [1]; Table 41,96%
same,IC50,human PKK mRNA [1]; Table 35,200 nM
same,IC50,human PKK mRNA [1]; Table 41,300 nM
same,% inhibition,"human PKK mRNA [2]; HepaRG cells, electroporation with 5,000 nM antisense oligonucleotide, approximately 24 hours, PKK mRNA by RT-PCR (RTS3454), relative to untreated control cells, Table 6 experiment",93%
547454 (antisense eT*eA*eT*e[5mC]*eA*dT*dG*dA*dT*dT*d[5mC]*d[5mC]*d[5mC]*dT*dT*e[5mC]*eT*eG*eA*eG) [compound 547454],percent inhibition of PKK at 0.19 μM,human PKK mRNA [1]; Table 36,19%
same,percent inhibition of PKK at 0.56 μM,human PKK mRNA [1]; Table 36,40%
same,percent inhibition of PKK at 1.67 μM,human PKK mRNA [1]; Table 36,58%
same,percent inhibition of PKK at 5.00 μM,human PKK mRNA [1]; Table 36,92%
same,IC50,human PKK mRNA [1]; Table 36,900 nM
same,% inhibition,"human PKK mRNA [2]; Table 9 experiment, HepaRG cells, 20,000 cells per well, electroporation with 5,000 nM antisense oligonucleotide, approx. 24 hours, PKK mRNA by RT-PCR (RTS3454), relative to untreated control cells",92%
same,% inhibition,"human PKK mRNA [2]; Table 10 experiment, HepaRG cells, 20,000 cells per well, electroporation with 5,000 nM antisense oligonucleotide, approx. 24 hours, PKK mRNA by RT-PCR (RTS3454), relative to untreated control cells",78%
547019 (eG*eA*eT*e[5mC]*eG*dG*dT*dG*dG*dT*dG*dG*dG*dA*dT*eT*eG*eG*eT*e[5mC]; antisense) [compound 547019],percent inhibition of PKK at 0.19 μM,human PKK mRNA [1]; Table 40,0%
same,percent inhibition of PKK at 0.56 μM,human PKK mRNA [1]; Table 40,6%
same,percent inhibition of PKK at 1.67 μM,human PKK mRNA [1]; Table 40,54%
same,percent inhibition of PKK at 5.00 μM,human PKK mRNA [1]; Table 40,86%
same,IC50,human PKK mRNA [1]; Table 40,1600 nM
same,% inhibition,"human PKK mRNA [2]; HepaRG cells, 5,000 nM antisense oligonucleotide, 5-10-5 gapmers, Table 17",83%
547514 (antisense eA*eG*eA*eT*eG*d[5mC]*d[5mC]*dA*d[5mC]*dT*d[5mC]*dT*d[5mC]*d[5mC]*dA*eT*eG*e[5mC]*eT*eT) [compound 547514],percent inhibition of PKK at 0.19 μM,human PKK mRNA [1]; Table 38,18%
same,percent inhibition of PKK at 0.56 μM,human PKK mRNA [1]; Table 38,8%
same,percent inhibition of PKK at 1.67 μM,human PKK mRNA [1]; Table 38,51%
same,percent inhibition of PKK at 5.00 μM,human PKK mRNA [1]; Table 38,80%
same,IC50,human PKK mRNA [1]; Table 38,1900 nM
same,% inhibition,"human PKK mRNA [2]; HepaRG cells, electroporation, 5,000 nM antisense oligonucleotide, approx. 24 hours, primer probe set RTS3454, relative to untreated control cells, Table 11",85%
